Laboratory results reported in US4871719A, “Composition for controlling parasites in productive livestock” (Ciba-Geigy Corporation, priority 1987, dated 1989).

What follows are molecules tested on L1 larvae of Lucilia sericata (assay: Action against L1 larvae of Lucilia sericata). Details: 96 h, read-out: action (mortality count).
Type: in vivo
Procedure: 1 ml of an aqueous suspension of test compound is mixed with 3 ml of a special larval culture medium at about 50° C. such that a homogeneous composition containing 250 ppm or 125 ppm of active ingredient is obtained. About 30 Lucilia sericata larvae (L1) are put into each test tube sample. A mortality count is made after 4 days. The compounds of formula I, such as, for example, Nos. 3.2, 3.6, 3.7, 3.10, 3.34 and 3.38, achieved 100% action at 125 ppm.

SMILES	mortality at 125 ppm [%]
COC1CC[C@@]2(O1)/C(C)=C/C[C@@H]1C[C@@H](C[C@]3(CC[C@H](C)[C@@H](C(C)C)O3)O1)OC(=O)[C@@H]1C=C(C)[C@@H](O)[C@H]3OC/C(=C\C=C\[C@@H]2C)[C@]31O (single isomer, unassigned) [Compound 3.2]	100
CCCOC1CC[C@@]2(O1)/C(C)=C/C[C@@H]1C[C@@H](C[C@]3(CC[C@H](C)[C@@H](C(C)C)O3)O1)OC(=O)[C@@H]1C=C(C)[C@@H](O)[C@H]3OC/C(=C\C=C\[C@@H]2C)[C@]31O (single isomer, unassigned) [Compound 3.7]	100
CC1=C[C@H]2C(=O)O[C@H]3C[C@@H](C/C=C(\C)[C@]4(CCC(OC(C)C)O4)[C@@H](C)/C=C/C=C4\CO[C@H]([C@@H]1O)[C@@]42O)O[C@@]1(CC[C@H](C)[C@@H](C(C)C)O1)C3 (single isomer, unassigned) [Compound 3.10]	100
COCCOC1CC[C@@]2(O1)/C(C)=C/C[C@@H]1C[C@@H](C[C@]3(CC[C@H](C)[C@@H](C(C)C)O3)O1)OC(=O)[C@@H]1C=C(C)[C@@H](O)[C@H]3OC/C(=C\C=C\[C@@H]2C)[C@]31O (single isomer, unassigned) [Compound 3.34]	100
CCOC1CC[C@@]2(O1)/C(C)=C/C[C@@H]1C[C@@H](C[C@]3(CC[C@H](C)[C@@H](C(C)C)O3)O1)OC(=O)[C@@H]1C=C(C)[C@@H](O)[C@H]3OC/C(=C\C=C\[C@@H]2C)[C@]31O (stereo partly drawn) [Compound 3.6]	100
CCOCCOC1CC[C@@]2(O1)/C(C)=C/C[C@@H]1C[C@@H](C[C@]3(CC[C@H](C)[C@@H](C(C)C)O3)O1)OC(=O)[C@@H]1C=C(C)[C@@H](O)[C@H]3OC/C(=C\C=C\[C@@H]2C)[C@]31O (stereo partly drawn) [Compound 3.38]	100
